{"source": "PubChem BioAssay AID1259407", "about": "(Chemical Carcinogenesis Research Information System (CCRIS), 2018)", "test_system": "CCRIS mutagenicity, Ames/micronucleus/aberration tests", "assay": "CCRIS mutagenicity studies", "note": "Active and inactive are the calls of the source. The rule behind the calls is not given here."}
{"smiles": "C=CC#N", "values": [{"measurement": "mutagenic call", "setting": "Test System: AMES SALMONELLA TYPHIMURIUM, Strain/Indicator: TA1535, Metabolic Activation: HAMSTER LIVER S-9, AROCLOR 1254 (5, 10, OR 30%), Method: PREINCUBATION", "value": "active; positive"}, {"measurement": "mutagenic call", "setting": "Test System: AMES SALMONELLA TYPHIMURIUM, Strain/Indicator: TA1535, Metabolic Activation: HAMSTER, LIVER, S-9, AROCLOR 1254 (2.5-20%), Method: STANDARD PLATE", "value": "active; positive"}, {"measurement": "mutagenic call", "setting": "Test System: AMES SALMONELLA TYPHIMURIUM, Strain/Indicator: TA1535, Metabolic Activation: HAMSTER, LIVER, S-9, AROCLOR 1254 (10%), Method: STANDARD PLATE", "value": "active; positive"}, {"measurement": "mutagenic call", "setting": "Test System: AMES SALMONELLA TYPHIMURIUM, Strain/Indicator: TA1535, Metabolic Activation: HAMSTER, LIVER, S-9, AROCLOR 1254 (10, 20%), Method: PREINCUBATION", "value": "active; positive"}, {"measurement": "mutagenic call", "setting": "Test System: AMES SALMONELLA TYPHIMURIUM, Strain/Indicator: TA1535, Metabolic Activation: HAMSTER, LIVER, S-9, AROCLOR 1254 (20%), Method: STANDARD PLATE", "value": "active; positive"}, {"measurement": "mutagenic call", "setting": "Test System: AMES SALMONELLA TYPHIMURIUM, Strain/Indicator: TA1535, Metabolic Activation: MOUSE, LIVER, S-9, AROCLOR 1254, Method: LIQUID, VAPOR, SPOT", "value": "active; positive"}, {"measurement": "mutagenic call", "setting": "Test System: AMES SALMONELLA TYPHIMURIUM, Strain/Indicator: TA1535, Metabolic Activation: NONE, Method: PREINCUBATION", "value": "inactive; negative"}, {"measurement": "mutagenic call", "setting": "Test System: AMES SALMONELLA TYPHIMURIUM, Strain/Indicator: TA1535, Metabolic Activation: NONE, Method: STANDARD PLATE", "value": "inactive; negative"}, {"measurement": "mutagenic call", "setting": "Test System: AMES SALMONELLA TYPHIMURIUM, Strain/Indicator: TA1535, Metabolic Activation: RAT LIVER S-9, AROCLOR 1254 (5%), Method: PREINCUBATION", "value": "active; positive"}, {"measurement": "mutagenic call", "setting": "Test System: AMES SALMONELLA TYPHIMURIUM, Strain/Indicator: TA1535, Metabolic Activation: RAT LIVER S-9, AROCLOR 1254 (5,10, OR 30%), Method: PREINCUBATION", "value": "active; positive"}, {"measurement": "mutagenic call", "setting": "Test System: AMES SALMONELLA TYPHIMURIUM, Strain/Indicator: TA1535, Metabolic Activation: RAT LIVER S-9, AROCLOR 1254 (10% OR 30%), Method: PREINCUBATION", "value": "active; positive"}, {"measurement": "mutagenic call", "setting": "Test System: AMES SALMONELLA TYPHIMURIUM, Strain/Indicator: TA1535, Metabolic Activation: RAT, LIVER, S-9, 3-METHYLCHOLANTHRENE OR PCB OR PHENOBARBITAL, Method: DESICCATOR", "value": "active; positive"}, {"measurement": "mutagenic call", "setting": "Test System: AMES SALMONELLA TYPHIMURIUM, Strain/Indicator: TA1535, Metabolic Activation: RAT, LIVER, S-9, AROCLOR 1254, Method: STANDARD PLATE", "value": "inactive; negative"}, {"measurement": "mutagenic call", "setting": "Test System: AMES SALMONELLA TYPHIMURIUM, Strain/Indicator: TA1537, Metabolic Activation: NONE, Method: STANDARD PLATE", "value": "inactive; negative"}, {"measurement": "mutagenic call", "setting": "Test System: AMES SALMONELLA TYPHIMURIUM, Strain/Indicator: TA1537, Metabolic Activation: RAT, LIVER, S-9, AROCLOR 1254, Method: STANDARD PLATE", "value": "inactive; negative"}, {"measurement": "mutagenic call", "setting": "Test System: AMES SALMONELLA TYPHIMURIUM, Strain/Indicator: TA1538, Metabolic Activation: MOUSE, LIVER, S-9, AROCLOR 1254, Method: LIQUID, VAPOR, SPOT", "value": "active; positive"}, {"measurement": "mutagenic call", "setting": "Test System: AMES SALMONELLA TYPHIMURIUM, Strain/Indicator: TA1538, Metabolic Activation: NONE, Method: STANDARD PLATE", "value": "inactive; negative"}, {"measurement": "mutagenic call", "setting": "Test System: AMES SALMONELLA TYPHIMURIUM, Strain/Indicator: TA1538, Metabolic Activation: RAT, LIVER, S-9, AROCLOR 1254, Method: STANDARD PLATE", "value": "inactive; negative"}, {"measurement": "mutagenic call", "setting": "Test System: AMES SALMONELLA TYPHIMURIUM, Strain/Indicator: TA1978, Metabolic Activation: MOUSE, LIVER, S-9, AROCLOR 1254, Method: VAPOR", "value": "active; positive"}, {"measurement": "mutagenic call", "setting": "Test System: Ames Salmonella typhimurium, Strain/Indicator: YG7108pin3ERb5, Metabolic Activation: None, Method: Standard plate", "value": "inactive; negative"}, {"measurement": "mutagenic call", "setting": "Test System: CHINESE HAMSTER V-79, Strain/Indicator: V-79 (HGPRT)/8-AZAGUANINE, Metabolic Activation: NONE, Method: REPLATING", "value": "inactive; negative"}, {"measurement": "mutagenic call", "setting": "Test System: CHINESE HAMSTER V-79, Strain/Indicator: V-79 (HGPRT)/8-AZAGUANINE, Metabolic Activation: RAT, LIVER, S-9, AROCLOR 1254, Method: REPLATING", "value": "inactive; negative"}, {"measurement": "mutagenic call", "setting": "Test System: E. COLI, Strain/Indicator: WP2, Metabolic Activation: NONE, Method: FLUCTUATION", "value": "active; positive"}, {"measurement": "mutagenic call", "setting": "Test System: E. COLI, Strain/Indicator: WP2, Metabolic Activation: NONE, Method: STANDARD PLATE", "value": "active; positive"}, {"measurement": "mutagenic call", "setting": "Test System: E. COLI, Strain/Indicator: WP2 UVRA, Metabolic Activation: NONE, Method: STANDARD PLATE", "value": "active; positive"}, {"measurement": "mutagenic call", "setting": "Test System: MOUSE LYMPHOMA, Strain/Indicator: L5178Y (TK+/+)/OUABAIN, Metabolic Activation: NONE, Method: SUSPENSION/PLATE", "value": "inactive; negative"}, {"measurement": "mutagenic call", "setting": "Test System: MOUSE LYMPHOMA, Strain/Indicator: L5178Y (TK+/+)/OUABAIN, Metabolic Activation: RAT LIVER S-9, AROCLOR 1254, Method: SUSPENSION/PLATE", "value": "inactive; negative"}, {"measurement": "mutagenic call", "setting": "Test System: MOUSE LYMPHOMA, Strain/Indicator: L5178Y (TK+/TK-), Metabolic Activation: RAT, LIVER, S-9, Method: SUSPENSION/PLATE", "value": "active; positive"}, {"measurement": "mutagenic call", "setting": "Test System: MOUSE LYMPHOMA, Strain/Indicator: L5178Y(TK+/TK-)/TRIFLUOROTHYMIDINE, Metabolic Activation: NONE, Method: SUSPENSION PLATE", "value": "active; positive"}, {"measurement": "mutagenic call", "setting": "Test System: UDS HUMAN MAMMARY EPITHELIAL CELLS, Strain/Indicator: THY INCORP, Metabolic Activation: NONE, Method: AUTORADIOGRAPHY", "value": "inactive; negative"}, {"measurement": "mutagenic call", "setting": "Test System: UDS PRIMARY RAT HEPATOCYTES, Strain/Indicator: THY INCORP, Metabolic Activation: NONE, Method: AUTORADIOGRAPHY", "value": "inactive; negative"}, {"measurement": "mutagenic call", "setting": "Test System: UDS PRIMARY RAT HEPATOCYTES, Strain/Indicator: THY INCORP, Metabolic Activation: NONE, Method: IN VIVO-IN VITRO", "value": "inactive; negative"}, {"measurement": "mutagenic call", "setting": "Test System: UDS PRIMARY RAT SPERMATOCYTES, Strain/Indicator: THY INCORP, Metabolic Activation: NONE, Method: IN VIVO-IN VITRO", "value": "inactive; negative"}, {"measurement": "mutagenic call", "setting": "Test System: UDS RAT HEPATOCYTES, Strain/Indicator: THY INCORP, Metabolic Activation: NONE, Method: LIQUID SCINTILLATION COUNTING", "value": "active; positive"}]}
